Literature values in patent publication US5883123A, “Butyrate prodrugs derived from lactic acid” (Vertex Pharmaceuticals, Inc., priority 1995, dated 1999).

Key:
tumor = conditions: mice
[1] = tested on: Cultured Erythroleukemic Cells; conditions: in vitro

In the case of `CCCC(=O)O` [arginine butyrate], the “anti-tumor and anti-leukemia effects” value (tumor) is listed as “anti-tumor and anti-leukemia effects in mice”.
In the case of `CCCC(=O)O` [butyric acid], the cell differentiation [1] is given as “induces cell differentiation in vitro” and the “effects in leukemia patients, by inducing cell differentiation” value (leukemia patients) is given as “promising effects in leukemia patients”.
